These results are taken from patent publication US5457106A, “Pyridine derivatives, their production and use” (Takeda Chemical Industries, Ltd., priority 1991, dated 1995).

Structures are written as SMILES.

The target of one test is T1, cyclooxygenase (Rattus norvegicus, UniProt Q63921).
T1 construct: from tissue; host or cells: platelets in platelet-rich plasma from rat abdominal aorta blood (Jcl:wistar, male)
T1 sequence (Q63921 27-602): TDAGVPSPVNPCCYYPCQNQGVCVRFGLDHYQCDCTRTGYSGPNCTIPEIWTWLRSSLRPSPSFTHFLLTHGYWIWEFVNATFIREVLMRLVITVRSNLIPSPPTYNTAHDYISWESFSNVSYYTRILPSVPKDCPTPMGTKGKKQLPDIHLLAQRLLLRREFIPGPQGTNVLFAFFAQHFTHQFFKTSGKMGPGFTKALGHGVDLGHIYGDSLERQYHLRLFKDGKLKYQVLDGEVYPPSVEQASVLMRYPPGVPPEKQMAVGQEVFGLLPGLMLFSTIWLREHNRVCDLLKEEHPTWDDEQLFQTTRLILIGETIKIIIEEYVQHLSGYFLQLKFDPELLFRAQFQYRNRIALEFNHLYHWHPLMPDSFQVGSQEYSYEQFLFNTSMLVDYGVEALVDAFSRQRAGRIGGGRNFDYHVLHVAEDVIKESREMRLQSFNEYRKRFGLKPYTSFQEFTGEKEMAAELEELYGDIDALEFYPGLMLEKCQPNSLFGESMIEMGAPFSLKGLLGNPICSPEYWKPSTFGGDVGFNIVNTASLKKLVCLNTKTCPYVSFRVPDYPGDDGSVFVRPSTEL
In words: Cyclooxygenase inhibitory activity (HHT formation from arachidonic acid in rat platelet-rich plasma). It is filed as cell-based, rat (Jcl:wistar).
Settings: not given
Compound `CCCCCCCCCCCC(=O)NCCCSc1ccncc1` [Example 17, 4-[3-(lauroylamino)propylthio]pyridine] had a 50% inhibitory concentration (IC50) of 1.5 µM.

The next test concerns ART (antigen-responding T-cell). Kind of test: In vitro ART (antigen-responding T-cell) proliferation test. In kind it is cell-based, Lewis rat. The conditions noted are these: Rattus norvegicus, T-cell, 1 μM; read-out: % Inhibition of ART growth.
As for `O=C1c2ccc([N+](=O)[O-])cc2C(=O)N1CSc1ccncc1` [Example 95, 4-[(4-nitrophthalimido)methylthio]pyridine], the inhibition at 1 µM stood at 20%.

Consider `O=C1SC(=Cc2ccccc2)C(=O)N1CCSc1ccncc1` [Example 155, 4-[2-(5-benzylidene-2,4-thiazolidinedione)ethylthio]pyridine], for which the inhibition at 1 µM worked out at 4%.

With `CCCCCCCCCCCCN(CCCSc1ccncc1)C(=O)C(F)(F)F` [Example 94, 4-[3-(N-dodecyl-N-trifluoroacetylamino)propylthio]pyridine], the inhibition at 1 µM came to 33%.

For `O=c1c2ccccc2n(Cc2ccccc2)c(=O)n1CCCCSc1ccncc1` [Example 149, 3-[4-(4-pyridylthio)butyl]-1-benzylquinazolin-2,4-(1H,3H)-dione], the inhibition at 1 µM was -10%.

Staying with this test, now noted: Rattus norvegicus, T-cell, 10 μM; read-out: % Inhibition of ART growth.
As for `O=C1c2ccc([N+](=O)[O-])cc2C(=O)N1CSc1ccncc1` [Example 95, 4-[(4-nitrophthalimido)methylthio]pyridine], the inhibition at 10 µM was found to be 32%.

Consider `O=C1SC(=Cc2ccccc2)C(=O)N1CCSc1ccncc1` [Example 155, 4-[2-(5-benzylidene-2,4-thiazolidinedione)ethylthio]pyridine], for which the inhibition at 10 µM amounted to 78%.

With `CCCCCCCCCCCCN(CCCSc1ccncc1)C(=O)C(F)(F)F` [Example 94, 4-[3-(N-dodecyl-N-trifluoroacetylamino)propylthio]pyridine], the inhibition at 10 µM is 70%.

For the compound `O=c1c2ccccc2n(Cc2ccccc2)c(=O)n1CCCCSc1ccncc1` [Example 149, 3-[4-(4-pyridylthio)butyl]-1-benzylquinazolin-2,4-(1H,3H)-dione], the inhibition at 10 µM came to 19%.

In another test the target is T2, 5-Lipoxygenase (Rattus norvegicus, UniProt P12527).
T2 construct: rat basophilic leukemia cell suspension; endogenous in cells
T2 sequence (P12527 1-673): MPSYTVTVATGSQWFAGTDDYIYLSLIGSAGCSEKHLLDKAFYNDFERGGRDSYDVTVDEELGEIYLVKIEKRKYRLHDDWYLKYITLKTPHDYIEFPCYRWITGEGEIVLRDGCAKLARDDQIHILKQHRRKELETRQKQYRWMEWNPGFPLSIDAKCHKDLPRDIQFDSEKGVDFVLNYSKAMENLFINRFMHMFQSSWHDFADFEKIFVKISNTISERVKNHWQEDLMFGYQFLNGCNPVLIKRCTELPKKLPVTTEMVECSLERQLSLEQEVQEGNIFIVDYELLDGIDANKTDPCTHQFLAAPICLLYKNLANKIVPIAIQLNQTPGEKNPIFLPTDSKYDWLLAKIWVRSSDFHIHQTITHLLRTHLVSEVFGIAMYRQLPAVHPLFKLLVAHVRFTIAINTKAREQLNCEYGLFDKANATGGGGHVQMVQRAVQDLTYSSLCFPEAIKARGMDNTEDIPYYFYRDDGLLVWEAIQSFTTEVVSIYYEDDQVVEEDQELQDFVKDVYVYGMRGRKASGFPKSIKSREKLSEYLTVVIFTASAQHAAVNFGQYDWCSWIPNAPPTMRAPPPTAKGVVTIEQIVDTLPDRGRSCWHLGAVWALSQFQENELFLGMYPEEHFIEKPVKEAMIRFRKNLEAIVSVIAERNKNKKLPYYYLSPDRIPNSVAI
Kind of test: 5-Lipoxygenase inhibitory activity in rat basophilic leukemia cells. In kind it is cell-based. The conditions noted are these: 5-HETE; read-out: 5-Lipoxygenase inhibitory activity, 5-HETE IC50. Here is the method:
5-Lipoxygenase Inhibitory Activity […] Then, 0.1 ml of mast cell medium containing 50 μg of arachidonic acid and 1 μg of calcium ionophore (A-23187) were added and the mixture was allowed to stand at 37° C. for 15 minutes. Ethanol (1 ml) was added thereto and the mixture was shaken well, and filtered (Membrane filter, 0.45 μm). […] As a control, the measurement was carried out according to the same manner except that 0.01 ml of the solvent used for dissolving the test compound was used in place of the test compound. The inhibitory percentage (%) was calculated from the following equation to obtain IC50.
`O=C(NCCCCSc1ccncc1)c1cc2ccccc2s1` [Example 128, 4-[4-(thianaphthene-2-carbonylamino)butylthio]pyridine]: the IC50 was 6.1 µM.

Take `O=C1c2ccc([N+](=O)[O-])cc2C(=O)N1CSc1ccncc1` [Example 95, 4-[(4-nitrophthalimido)methylthio]pyridine]: the IC50 stood at 0.044 µM.

For `CCCCCCCCCCCC(=O)NCCCSc1ccncc1` [Example 17, 4-[3-(lauroylamino)propylthio]pyridine], the IC50 turned out to be 17.5 µM.

`O=C1SC(=Cc2ccccc2)C(=O)N1CCSc1ccncc1` [Example 155, 4-[2-(5-benzylidene-2,4-thiazolidinedione)ethylthio]pyridine]: the IC50 came to 3.8 µM.

For `CCCCCCCCCC(=O)NCCCSc1ccccn1` [Example 3, 2-[3-(caprylamino)propylthio]pyridine], the IC50 turned out to be 22.2 µM.

Take `O=C1c2ccccc2C(=O)N1CCSc1ccccn1` [Example 4, 2-(2-phthalimidoethylthio)pyridine]: the IC50 amounted to 17.4 µM.

As to `CCCCCCCCCCCCN(CCCSc1ccncc1)C(=O)C(F)(F)F` [Example 94, 4-[3-(N-dodecyl-N-trifluoroacetylamino)propylthio]pyridine], the IC50 worked out at 2.4 µM.

As to `O=c1c2ccccc2n(Cc2ccccc2)c(=O)n1CCCCSc1ccncc1` [Example 149, 3-[4-(4-pyridylthio)butyl]-1-benzylquinazolin-2,4-(1H,3H)-dione], the half-inhibitory concentration (IC50) came out at 2.3 µM.

Turning to `CCCCCCCC/C=C\CCCCCCCC(=O)NCCCSc1ccncc1` [Example 21, 4-[3-(oleoylamino)propylthio]pyridine], the IC50 came out at 21.5 µM.

The test is the same for the next values; noted with them: LTB4; read-out: 5-Lipoxygenase inhibitory activity, LTB4 IC50.
Regarding `O=C(NCCCCSc1ccncc1)c1cc2ccccc2s1` [Example 128, 4-[4-(thianaphthene-2-carbonylamino)butylthio]pyridine], the half-maximal inhibitory concentration (IC50) was 5.4 µM.

Turning to `O=C1c2ccc([N+](=O)[O-])cc2C(=O)N1CSc1ccncc1` [Example 95, 4-[(4-nitrophthalimido)methylthio]pyridine], the IC50 came out at 0.033 µM.

Take `CCCCCCCCCCCC(=O)NCCCSc1ccncc1` [Example 17, 4-[3-(lauroylamino)propylthio]pyridine]: the concentration for half-maximal inhibition (IC50) was determined as 14.3 µM.

`O=C1SC(=Cc2ccccc2)C(=O)N1CCSc1ccncc1` [Example 155, 4-[2-(5-benzylidene-2,4-thiazolidinedione)ethylthio]pyridine]: the half-inhibitory concentration (IC50) stood at 3.7 µM.

Turning to `CCCCCCCCCC(=O)NCCCSc1ccccn1` [Example 3, 2-[3-(caprylamino)propylthio]pyridine], the IC50 is 17.5 µM.

For `O=C1c2ccccc2C(=O)N1CCSc1ccccn1` [Example 4, 2-(2-phthalimidoethylthio)pyridine], the half-inhibitory concentration (IC50) is 11.8 µM.

As to `CCCCCCCCCCCCN(CCCSc1ccncc1)C(=O)C(F)(F)F` [Example 94, 4-[3-(N-dodecyl-N-trifluoroacetylamino)propylthio]pyridine], the concentration for half-maximal inhibition (IC50) was determined as 2 µM.

Consider `O=c1c2ccccc2n(Cc2ccccc2)c(=O)n1CCCCSc1ccncc1` [Example 149, 3-[4-(4-pyridylthio)butyl]-1-benzylquinazolin-2,4-(1H,3H)-dione], for which the concentration for half-maximal inhibition (IC50) was 2.2 µM.

As for `CCCCCCCC/C=C\CCCCCCCC(=O)NCCCSc1ccncc1` [Example 21, 4-[3-(oleoylamino)propylthio]pyridine], the IC50 turned out to be 16.4 µM.

By IC50 is commonly meant the concentration needed to halve the response being measured. One may read the inhibition as the relative decrease from the control value, in per cent.
